The values that follow come from patent US20030232887A1, “Preparation and use of a stable formulation of allosteric effector compounds” (priority 2002, published 2003).

Values after ≈ are worked out from the molar mass of the structure shown. Like-named read-outs stand apart in the source and are kept apart here.

Type in all cases: physicochemical
Series [1] in a line: Solubility of the allosteric effector compound in water and stabilizing agent solutions. Here is the method: (§1) The pKa for 2-[4-[2-[(3,5-dimethylphenyl)amino]-2-oxoethyl]phenoxy]-2-methyl-propionic acid is about 3.5. Accordingly, there is an appreciable solubility at a pH of 7. The solubility of the sodium salt of 2-[4-[2-[(3,5-dimethylphenyl)amino]-2-oxoethyl]phenoxy]-2-methyl-propionic acid at a pH of 7 is about 50 mg/ml. […] It is thought that the addition of a stabilizing agent maintains the integrity of this small aggregate-like species.
This unforeseen problem of formation of particulate matter at concentrations beneath the solubility of the compound is solved by the addition of a stabilizing agent. The effect of the stabilizing agent is to prevent or minimize the formation of sub-visual particulates. In some embodiments, the stabilizing agent may also act as a buffer to stabilize the pH of the solution. In other embodiments, the stabilizing agent and buffering agent are different. The stabilizing agent acts to prevent the formation of significant amounts of sub-visual particulate matter, particularly after heat sterilization. The result is a formulation that can be terminally sterilized, have a long shelf life, and meet the USP 25 <788> sub-visual particulate matter requirements. Without being bound by theory, it is believed that stabilization of pH is one factor contributing to stabilization of the formulation; however, the pH of the solution alone is insufficient to stabilize the solutions. […] If necessary, the pH of the solution can be adjusted to a pH of at least about 6, preferably from about 6 to about 11. More preferably, the pH is adjusted to about 6.5 to about 9.0. More preferably, the pH is adjusted to about 7.5 to 8.5. The pH may be adjusted by the addition of any appropriate acid or base. Suitable acids may be amino acids, carboxylic acids, phosphoric acid, hydrochloric acid or other acids suitable for pharmaceutical preparations. Suitable bases include, sodium hydroxide or other bases suitable for pharmaceutical preparations.
Accordingly, stabilizing agents having an amine group are contemplated within the scope of this invention.

A short description of series [2]: Chemical and physical (precipitate) stability of the formulation. How it is done: as §1
The allosteric modifying compound is chemically and physically stable between a pH of about 6 and about 11. Preferably, the composition has a pH of at least about 6. More preferably, the composition has a pH ranging from about 6 to about 11. Most preferably, the composition has a pH ranging from about 6.5 to about 9.0.
The composition of the present invention is chemically stable and stable with respect to the formation of particulate matter for at least about thirty days. This makes the composition particularly useful at the administration site because no additional steps, such as filtering the composition, are necessary prior to administration to a patient. Time is time after sterilization.

A further series is described as follows: pKa. Here is the method:
as §1

Setting [3] is: 20 mg/mL (58.7 mmol/L), pH 7.5, no stabilizing compound, heat sterilized.

As a reminder, the solubility is the concentration that dissolves in the medium under given conditions. What is called pKa is the pH at which an ionisable group is half protonated.

`Cc1cc(C)cc(NC(=O)Cc2ccc(OC(C)(C)C(=O)[O-])cc2)c1.[Na+]` [sodium salt of 2-[4-[2-[(3,5-dimethylphenyl)amino]-2-oxoethyl]phenoxy]-2-methyl-propionic acid]: the solubility in series [1] (pH 7, aqueous buffer, pH of 7, read-out: solubility) is around 50 mg/mL.
With `Cc1cc(C)cc(NC(=O)Cc2ccc(OC(C)(C)C(=O)O)cc2)c1` [2-[4-[2-[(3,5-dimethylphenyl)amino]-2-oxoethyl]phenoxy]-2-methyl-propionic acid], the solubility is 155 mg/mL (≈ 454 mM) in series [1] (aqueous buffer, 0.5 M arginine solution, 23° C., pH 7.2-7.5, read-out: solubility); 99.9 mg/mL (≈ 293 mM) in series [1] (aqueous buffer, 0.5 M tris solution, 23° C., pH 7-8, read-out: solubility); around 12 mg/mL (≈ 35.1 mM) in series [1] (aqueous buffer, 100-200 mM meglumine solutions, 23° C., pH 7.5, read-out: increase in solubility); around 44 mg/mL (≈ 129 mM) in series [1] (in water, 23° C., read-out: solubility). Further, the chemical degradation entry in series [2] (setting [3]) is reported as “stable to chemical degradation”. Moreover, the “precipitate formation after heat sterilization” value in series [2] (setting [3]) is “developed a precipitate of the allosteric modifier within one week after sterilization”. Also, the “precipitation / subvisual particulate formation in solution” value in series [2] (20 mg/ml, pH about 7, 25° C.) was “begins to precipitate out of solution, forming subvisual particulate”. Besides, the pKa in “pKa” was around 3.5.
